The source of these data is BindingDB's records for PubMed 34154424 (Bayer AG).

The target of experiment [1] is Mitogen-activated protein kinase kinase kinase 7, TAK1 kinase (Homo sapiens) (UniProt O43318). The experiment is described as follows: Inhibition of Tak1 (unknown origin) by competition binding assay.
The target of experiment [2] is Tyrosine-protein kinase Fyn (Homo sapiens) (UniProt P06241). Briefly: Inhibition of T-Fyn (unknown origin) by HTRF assay. On the technique in general: In TR-FRET formats the signal depends on donor and acceptor labels being close together.
In experiment [3] the target is Mitogen-activated protein kinase kinase kinase 7, TAK1 kinase (Homo sapiens) (UniProt O43318). Briefly: Inhibition of Tak1 (unknown origin) in presence of ATP.

Chain of Mitogen-activated protein kinase kinase kinase 7, TAK1 kinase (Homo sapiens) (O43318 whole entry, looked up): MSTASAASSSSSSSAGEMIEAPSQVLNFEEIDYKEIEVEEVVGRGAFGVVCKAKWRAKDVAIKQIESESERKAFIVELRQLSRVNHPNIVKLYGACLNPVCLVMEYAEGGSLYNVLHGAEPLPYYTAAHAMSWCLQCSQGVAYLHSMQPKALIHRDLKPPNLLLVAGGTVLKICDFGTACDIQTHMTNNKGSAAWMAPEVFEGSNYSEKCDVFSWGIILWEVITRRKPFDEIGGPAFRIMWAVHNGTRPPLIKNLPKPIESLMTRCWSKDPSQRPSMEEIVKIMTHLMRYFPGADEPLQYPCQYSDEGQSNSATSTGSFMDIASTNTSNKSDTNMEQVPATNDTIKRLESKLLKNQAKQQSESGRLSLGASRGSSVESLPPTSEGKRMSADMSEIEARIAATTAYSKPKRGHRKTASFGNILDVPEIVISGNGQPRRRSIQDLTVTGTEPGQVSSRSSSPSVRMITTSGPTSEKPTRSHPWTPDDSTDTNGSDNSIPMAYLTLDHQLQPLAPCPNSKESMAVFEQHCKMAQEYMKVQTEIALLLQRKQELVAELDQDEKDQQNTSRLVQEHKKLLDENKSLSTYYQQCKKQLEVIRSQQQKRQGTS
Chain of Tyrosine-protein kinase Fyn (Homo sapiens) (P06241 whole entry, looked up): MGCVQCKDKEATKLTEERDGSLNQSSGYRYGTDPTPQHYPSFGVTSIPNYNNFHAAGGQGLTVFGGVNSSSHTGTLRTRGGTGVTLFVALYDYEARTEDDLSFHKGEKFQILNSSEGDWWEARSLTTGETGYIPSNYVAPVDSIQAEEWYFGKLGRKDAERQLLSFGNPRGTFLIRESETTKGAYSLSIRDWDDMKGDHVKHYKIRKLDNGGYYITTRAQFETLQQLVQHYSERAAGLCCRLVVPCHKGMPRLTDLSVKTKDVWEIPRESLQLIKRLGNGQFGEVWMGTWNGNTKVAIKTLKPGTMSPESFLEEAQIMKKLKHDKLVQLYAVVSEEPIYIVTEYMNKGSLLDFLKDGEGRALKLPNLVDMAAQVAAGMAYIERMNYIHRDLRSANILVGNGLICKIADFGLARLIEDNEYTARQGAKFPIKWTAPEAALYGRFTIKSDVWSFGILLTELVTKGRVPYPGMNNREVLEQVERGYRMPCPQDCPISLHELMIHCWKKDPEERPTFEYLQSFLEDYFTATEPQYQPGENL

As a reminder, the IC50 is the concentration that gives 50% inhibition. Consider `C[C@H]1CC(=O)Nc2cc(C(=O)NCCC3CC3)ccc2N1C(=O)N1CC2CC2C1` (stereo partly drawn), for which the results for the IC50 in experiment [1], in experiment [2] and in experiment [3] were over 2 nM, over 5.7 nM and over 2 nM, respectively.
